System: IgE antibodies from patients
Assay: Wheat epitope mapping (2): overlapping 10-amino-acid peptide fragments shifted by one amino acid;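 for Rank of partial sequence as epitope binding to IgE antibody: key = sequence deemed particularly important within the common 15-residue sequence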;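 for epitope sequence binding to IgE antibody, rank (Key/Preferably/More preferably): key of grades: preferably = shorter partial sequence still acting as epitope; more preferably = sequence improving IgE binding; key = particularly important sequence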
Assay type: binding, human
Procedure, shortened: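 Cellulose-bound 10-mer peptides offset by one residue were probed with patient serum IgE and detected by chemiluminescence. Secondary-antibody-only signals were subtracted per peptide. Residual binding was expressed as % of the parent overlapping peptide, scored as none (<30%), poor (30–<50%), somewhat poor (50–<70%) or retained (≥70%).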

[1] = serum of patient P34 (WDEIA), sequence without X
[2] = serum of patient P33 (WDEIA), sequence without X
[3] = serum of patient P10 (WDEIA), sequence without X
[4] = serum of patient P21 (WDEIA), sequence without X
[5] = serum of patient P3 (WDEIA), sequence without X
[6] = serum of patient G7 (adult, general immediate type allergy to wheat)
[7] = serum of patient P55 (child, general immediate type allergy to wheat)

2394 (HDIDRCAYV; REGION 1..9: note = epitope) [compound 2394]
Epitope sequence binding to IgE antibody, rank of the sequence (Key/Preferably/More preferably) [1]: Key

2235 (SRLLRGIRN; REGION 1..9: note = epitope) [compound 2235]
Epitope sequence binding to IgE antibody, rank of the sequence (Key/Preferably/More preferably) (serum of patient P30 (WDEIA), sequence without X): Key

1695 (EAANFT; REGION 1..6: note = epitope) [compound 1695]
Rank of partial sequence as epitope binding to IgE antibody (serum of patient P20 (WDEIA), sequence without X): Key

1640 (DKVPFVPISG; REGION 1..10: note = epitope) [compound 1640]
Rank of partial sequence as epitope binding to IgE antibody [1]: Key

2579 (YQLVQQ; REGION 1..6: note = epitope) [compound 2579]
Epitope sequence binding to IgE antibody, rank of the sequence (serum of patient P30 (WDEIA), partial sequence): Key

2377 (YVTEIV; REGION 1..6: note = epitope) [compound 2377]
Epitope sequence binding to IgE antibody, rank of the sequence (Key/Preferably/More preferably) (serum of patient P27 (WDEIA), sequence without X): Key

2518 (PSQLNPQ; REGION 1..7: note = epitope) [compound 2518]
Epitope sequence binding to IgE antibody, rank of the sequence (serum of patient P53 (child, general immediate type allergy to wheat), partial sequence): Preferably

1669 (GYNPDKVPFV; REGION 1..10: note = epitope) [compound 1669]
Rank of partial sequence as epitope binding to IgE antibody (serum of patient G4 (adult, general immediate type allergy to wheat), sequence without X): More preferably

1910 (QFPGQQQ; REGION 1..7: note = epitope) [compound 1910]
epitope sequence binding to IgE antibody, rank (Key/Preferably/More preferably) (serum of patient P7 (WDEIA)): Key

1437 (PQQPISQQQA; REGION 1..10: note = epitope) [compound 1437]
Rank of partial sequence as epitope binding to IgE antibody (serum of patient P16 (WDEIA), sequence without X): Preferably

2727 (GIGTVPVGR; REGION 1..9: note = epitope) [compound 2727]
Epitope sequence binding to IgE antibody, rank of the sequence (serum of patient P27 (WDEIA), partial sequence): Key

2706 (YKIGGIGTV; REGION 1..9: note = epitope) [compound 2706]
Epitope sequence binding to IgE antibody, rank of the sequence (serum of patient P8 (WDEIA), partial sequence): Preferably

1929 (QFPGQQQ; REGION 1..7: note = epitope) [compound 1929]
epitope sequence binding to IgE antibody, rank (Key/Preferably/More preferably) (serum of patient P15 (WDEIA)): Preferably

2592 (YQLVQQ; REGION 1..6: note = epitope) [compound 2592]
Epitope sequence binding to IgE antibody, rank of the sequence (serum of patient P35 (WDEIA), partial sequence): Preferably

1369 (QQPLPPQQ; REGION 1..8: note = epitope) [compound 1369]
Epitope sequence binding to IgE antibody, rank of the sequence (Key/Preferably/More preferably/Further preferably) (serum of patient P2 (WDEIA), sequence without X): Preferably

1666 (YNPDKVP; REGION 1..7: note = epitope) [compound 1666]
Rank of partial sequence as epitope binding to IgE antibody (serum of patient G3 (adult, general immediate type allergy to wheat), sequence without X): Preferably

1780 (YLKKVG; REGION 1..6: note = epitope) [compound 1780]
epitope sequence binding to IgE antibody, rank (Key/Preferably/More preferably) (serum of patient G3 (adult, general immediate type allergy to wheat)): Key

1346 (NRRALR; REGION 1..6: note = epitope) [compound 1346]
Epitope sequence binding to IgE antibody, rank of the sequence [2]: Key

2276 (GGIDK; REGION 1..5: note = epitope) [compound 2276]
Epitope sequence binding to IgE antibody, rank of the sequence (Key/Preferably/More preferably) [3]: Key

1520 (QVPLVQQ; REGION 1..7: note = epitope) [compound 1520]
Rank of partial sequence as epitope binding to IgE antibody (serum of patient P8 (WDEIA), sequence without X): Preferably

1393 (QPLPPQQQ; REGION 1..8: note = epitope) [compound 1393]
Epitope sequence binding to IgE antibody, rank of the sequence [4]: Preferably

2617 (SKRV; REGION 1..4: note = epitope) [compound 2617]
Epitope sequence binding to IgE antibody, rank of the sequence (serum of patient P24 (WDEIA), partial sequence): Key

1876 (VRTLQRT; REGION 1..7: note = epitope) [compound 1876]
epitope sequence binding to IgE antibody, rank (Key/Preferably/More preferably) (serum of patient P31 (WDEIA)): Preferably

1568 (PFPQTQ; REGION 1..6: note = epitope) [compound 1568]
Rank of partial sequence as epitope binding to IgE antibody [5]: Key

1339 (INVEN; REGION 1..5: note = epitope) [compound 1339]
Epitope sequence binding to IgE antibody, rank of the sequence (serum of patient P32 (WDEIA), sequence without X): Preferably

1832 (KELE; REGION 1..4: note = epitope) [compound 1832]
epitope sequence binding to IgE antibody, rank (Key/Preferably/More preferably) [6]: Key

1526 (VQQQ; REGION 1..4: note = epitope) [compound 1526]
Rank of partial sequence as epitope binding to IgE antibody [3]: Key

1288 (LPRS; REGION 1..4: note = epitope) [compound 1288]
Epitope sequence binding to IgE antibody, rank of the sequence (serum of patient P52 (child, general immediate type allergy to wheat), sequence without X): Key

2590 (QLVQQLCC; REGION 1..8: note = epitope) [compound 2590]
Epitope sequence binding to IgE antibody, rank of the sequence (serum of patient P34 (WDEIA), partial sequence): Preferably

1869 (YTVRTLQRT; REGION 1..9: note = epitope) [compound 1869]
epitope sequence binding to IgE antibody, rank (Key/Preferably/More preferably) (serum of patient P29 (WDEIA)): More preferably

1925 (QFPGQQ; REGION 1..6: note = epitope) [compound 1925]
epitope sequence binding to IgE antibody, rank (Key/Preferably/More preferably) (serum of patient P13 (WDEIA)): Key

1365 (SINVEN; REGION 1..6: note = epitope) [compound 1365]
Epitope sequence binding to IgE antibody, rank of the sequence (serum of patient G7 (adult, general immediate type allergy to wheat), sequence without X): Preferably

1859 (YTVRTLQR; REGION 1..8: note = epitope) [compound 1859]
epitope sequence binding to IgE antibody, rank (Key/Preferably/More preferably) (serum of patient P19 (WDEIA)): Preferably

1818 (PKFL; REGION 1..4: note = epitope) [compound 1818]
epitope sequence binding to IgE antibody, rank (Key/Preferably/More preferably) (serum of patient P32 (WDEIA)): Key

1620 (YNPDKV; REGION 1..6: note = epitope) [compound 1620]
Rank of partial sequence as epitope binding to IgE antibody (serum of patient P24 (WDEIA), sequence without X): Preferably

1243 (PQQPP; REGION 1..5: note = epitope) [compound 1243]
Epitope sequence binding to IgE antibody, rank of the sequence (serum of patient P26 (WDEIA), sequence without X): Key

1773 (EVSSYLKK; REGION 1..8: note = epitope) [compound 1773]
epitope sequence binding to IgE antibody, rank (Key/Preferably/More preferably) [7]: Key

1954 (QQFPGQQ; REGION 1..7: note = epitope) [compound 1954]
epitope sequence binding to IgE antibody, rank (Key/Preferably/More preferably) (serum of patient P26 (WDEIA)): Preferably

2619 (LASLSK; REGION 1..6: note = epitope) [compound 2619]
Epitope sequence binding to IgE antibody, rank of the sequence (serum of patient P32 (WDEIA), partial sequence): Key

1345 (NVEN; REGION 1..4: note = epitope) [compound 1345]
Epitope sequence binding to IgE antibody, rank of the sequence [2]: Key

1567 (PFPQTQQ; REGION 1..7: note = epitope) [compound 1567]
Rank of partial sequence as epitope binding to IgE antibody [5]: Preferably

1782 (VSSYLKKVGY; REGION 1..10: note = epitope) [compound 1782]
epitope sequence binding to IgE antibody, rank (Key/Preferably/More preferably) (serum of patient G4 (adult, general immediate type allergy to wheat)): Key

2246 (SRLLR; REGION 1..5: note = epitope) [compound 2246]
Epitope sequence binding to IgE antibody, rank of the sequence (Key/Preferably/More preferably/Further preferably) (serum of patient P50 (child, general immediate type allergy to wheat), sequence without X): Key

1862 (VRTLQ; REGION 1..5: note = epitope) [compound 1862]
epitope sequence binding to IgE antibody, rank (Key/Preferably/More preferably) (serum of patient P24 (WDEIA)): Key

1699 (EAANFT; REGION 1..6: note = epitope) [compound 1699]
Rank of partial sequence as epitope binding to IgE antibody [4]: Preferably

2508 (SQVSF; REGION 1..5: note = epitope) [compound 2508]
Epitope sequence binding to IgE antibody, rank of the sequence (serum of patient P22 (WDEIA), partial sequence): Key

1833 (KFLKN; REGION 1..5: note = epitope) [compound 1833]
epitope sequence binding to IgE antibody, rank (Key/Preferably/More preferably) [6]: Key

2344 (HDIDRCAY; REGION 1..8: note = epitope) [compound 2344]
Epitope sequence binding to IgE antibody, rank of the sequence (Key/Preferably/More preferably) (serum of patient P9 (WDEIA), sequence without X): Key

1900 (QVPLVQQ; REGION 1..7: note = epitope) [compound 1900]
epitope sequence binding to IgE antibody, rank (Key/Preferably/More preferably) (serum of patient P3 (WDEIA)): Preferably

1964 (QQQFPGQQ; REGION 1..8: note = epitope) [compound 1964]
epitope sequence binding to IgE antibody, rank (Key/Preferably/More preferably) (serum of patient P33 (WDEIA)): More preferably

1775 (LKKVGYN; REGION 1..7: note = epitope) [compound 1775]
epitope sequence binding to IgE antibody, rank (Key/Preferably/More preferably) [7]: Key

1425 (YLQPQQPIS; REGION 1..9: note = epitope) [compound 1425]
Epitope sequence binding to IgE antibody, rank of the sequence (serum of patient P12 (WDEIA), sequence without X): Preferably

1968 (QFPGQQ; REGION 1..6: note = epitope) [compound 1968]
epitope sequence binding to IgE antibody, rank (Key/Preferably/More preferably) (serum of patient P34 (WDEIA)): Key

From patent US20240393292A1, “ALLERGY ANTIGEN AND EPITOPE THEREOF” (HOYU CO., LTD., priority 2019, published 2024)
